In PubChem BioAssay (NCI) one finds TGI and GI50 data, which are given here for eleven compounds.

Holding throughout (test): NCI tumour cell line growth inhibition, 48 h
In test [1] the test system is K-562 leukemia.
For test [2], the system named is TK-10 renal.
The subject of test [3] is M14 melanoma.
Test [4] concerns U251 CNS.
For test [5], the system named is HCT-15 colon.
Test [6] relates to SNB-19 CNS.
Test [7] deals with HT29 colon.
For test [8], the system named is OVCAR-4 ovarian.
Test [9] relates to RPMI-8226 leukemia.
Test [10] has as its system ACHN renal.

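Exposure lasted 48 hours, with cells grown in 96-well plates and compounds tested at five concentrations. GI50 = concentration required for 50% inhibition of growth. TGI denotes the concentration required for complete inhibition of growth.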

As to `CCCCc1ccc(-n2c3nc(=O)n(C)c(=O)c-3nc3ccccc32)cc1`, the TGI in test [1] worked out at 33.6 µM; in [2] it was 27.5 µM; in test [3] it was 21.7 µM; in test [4], 23.5 µM; in test [5], 18.3 µM; in test [6] it was 21.2 µM. The TGI was 11.8 µM in test [7], 22 µM in test [8], 57 µM in test [9] and 23.1 µM in [10].

For `C1CCN(C2OC3C(COC3N3CCCCC3)OC2OC2CCO[C@@H]2N2CCCCC2)CC1` (stereo partly drawn), the TGI in test [1], in [2], in test [3], in test [4], in [5] and in [6] was more than 100 µM throughout. In addition, the TGI in test [7], in [8], in test [9] and in test [10] was more than 100 µM each time.

Regarding `O=C1c2cc([N+](=O)[O-])ccc2-c2cccc(F)c21`, the TGI in test [1], in test [2], in [3], in [4], in test [5] and in test [6] was more than 100 µM each time. Also, the TGI in [7], in [8], in test [9] and in test [10] was more than 100 µM each time.

In the case of `COc1ccc2c(CN3CCC[C@H]3C(=O)O)cc3cc4c(cc3c2c1)OCO4`, the GI50 in [1] is 20.2 µM; in test [2] it was 14.7 µM; in test [3] it was 13.3 µM; in test [4], 13.2 µM; in test [5] it was 19.1 µM; in test [6] it was 14 µM. The GI50 in test [7] is 8.46 µM; in test [8] it was 19.2 µM; in [9], 9.87 µM; in [10] it was 5.97 µM. For the same compound, the TGI is more than 100 µM in test [1]; 67.4 µM in [2]; 27.3 µM in [3]; more than 100 µM in [4]; more than 100 µM in test [5]; more than 100 µM in [6]. In addition, the TGI in [7] is 62 µM; in test [8], 61.4 µM; in test [9], 39.3 µM; in [10] it was more than 100 µM.

Turning to `O=C([O][Hg][CH2]C1COCC([CH2][Hg][O]C(=O)c2ccccc2)O1)c1ccccc1` (stereo not drawn), the GI50 in [1] is 2.61 µM; in test [2], 6.33 µM; in [3], 6.01 µM; in [4] it was 0.622 µM; in test [6], 19.2 µM; in [8], 14.4 µM. Further, the GI50 in test [9] was 2.75 µM; in test [10] it was 1.91 µM. Moreover, the TGI in [1] is 11.9 µM; in test [2], 31.5 µM; in test [3], 19.9 µM; in [4], 2.12 µM; in [6], 40 µM; in test [8], 49.6 µM. The TGI turned out to be 7.66 µM in [9] and 3.71 µM in test [10].

For `CC(C)CNc1nc(-c2ccccc2)nc2ccccc12`, the GI50 in test [1] is 11.1 µM; in test [2], 13.6 µM; in test [3] it was 13.5 µM; in test [4] it was 12.2 µM; in [5] it was more than 100 µM; in test [6], 19.2 µM. For the same compound, the GI50 in [8] was 13.5 µM; in [9], 4.31 µM; in test [10], 16 µM. Further, the TGI in test [1] was 30.8 µM; in test [2], 26.6 µM; in test [3], 26.4 µM; in [4], 24.8 µM; in [5], more than 100 µM; in [6], 39.6 µM. In addition, the figures for the TGI in [8], in test [9] and in [10] were 30 µM, 20.3 µM and 29.5 µM, respectively.

For the compound `CCN=c1cc2sc3cc(NCC)c(C)cc3nc-2cc1C`, the GI50 is 0.358 µM in [1]; 2.04 µM in test [2]; 0.636 µM in [3]; 0.646 µM in [4]; 0.489 µM in [5]; 2.98 µM in test [7]. Also, the GI50 in [8] was 0.237 µM; in test [9] it was 0.233 µM; in test [10], 1.58 µM. Also, the TGI came to 16.3 µM in [1]; 6.94 µM in test [2]; 2.74 µM in test [3]; 6.71 µM in test [4]; 9.51 µM in test [5]; 10.4 µM in test [7]. Moreover, the TGI in test [8] was determined as 2.31 µM; in [9] it was 3.45 µM; in test [10], 10.6 µM.

For `CC(=O)Nc1c(C)ccc2c1C(=O)c1ccccc1C2=O`, the TGI in test [1], in [2], in test [3], in [4], in test [5] and in test [7] was more than 100 µM each time. The TGI in [8], in [9] and in test [10] was more than 100 µM in each case.

Regarding `O=C1c2ccccc2C2(O)NC(=S)N(c3ccccc3)C12O` (stereo not drawn), the TGI in test [1], in test [2], in test [3], in test [4], in test [5] and in [6] was more than 100 µM in each case. The TGI in test [7], in test [8] and in test [9] was more than 100 µM in each case.

For `C[C@]12CC[C@H](OCCC#N)CC1=CC[C@@H]1C2CC[C@]2(C)/C(=N/OCCC#N)CCC12` (stereo partly drawn), the TGI is more than 100 µM in test [1]; more than 88.6 µM in test [2]; more than 100 µM in test [3]; more than 100 µM in [4]; more than 100 µM in [5]; 97.9 µM in test [6]. The TGI in [8] is 97.7 µM; in test [9] it was more than 100 µM; in test [10] it was more than 100 µM.

Take `COc1ccc2cc3[n+](cc2c1OC)CCc1cc(O)c(O)cc1-3`: the TGI in test [1], in test [2], in [3], in [4], in test [5] and in [6] was more than 100 µM throughout. The TGI in test [7], in test [8] and in [9] was more than 100 µM in each case.
